Experimental data: PMC9675719, “Expedient Synthesis of a Library of Heparan Sulfate‐Like “Head‐to‐Tail” Linked Multimers for Structure and Activity Relationship Studies” (Angewandte Chemie (International Ed. in English), 2022)
Where two headings read alike, the source gives them in different places. Values belong to the compound of their own block, whether it stands above or below them.

Columns and labels:
[1] = target: T1, FGF-2 (Homo sapiens, UniProt P09038); assay: Competition SPR assay: inhibition of FGF-2 interaction with immobilized biotinylated heparin; format: binding; details: for IC50: immobilized biotinylated heparin, FGF-2 50 nM, read-out: IC50 (amount of mimetic needed to reduce the FGF-2 binding by 50 %)
T1 sequence (P09038 134-288 limits assumed, species assumed): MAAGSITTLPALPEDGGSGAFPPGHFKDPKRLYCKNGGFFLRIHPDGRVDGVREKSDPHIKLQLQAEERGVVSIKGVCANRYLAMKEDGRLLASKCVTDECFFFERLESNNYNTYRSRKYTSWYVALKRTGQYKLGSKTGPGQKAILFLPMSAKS
Protocol: A competition SPR assay was performed to establish the SAR between the full panel of 27 HS‐like pseudo‐hexasaccharides and FGF‐2 (Figure 4). Biotinylated heparin was immobilized on the biosensor, and the pseudo‐hexasaccharides (10 μM) were mixed with FGF‐2 (50 nM) individually. […] The trend of 33, 33 z and 33 m in the order of decreasing FGF‐2 affinity is consistent with that observed in the direct binding SPR study (Figures 3 and S1). The IC50 values of several disaccharides and pseudo‐tetrasaccharides with FGF‐2 have also been measured. The disaccharides bound weakly with FGF‐2, and the fully sulfated pseudo‐tetrasaccharide gave the strongest binding among the pseudo‐tetrasaccharides tested, which in turn was much weaker than that of the pseudo‐hexasaccharide 33 (Figure S2).
Figure 4 Inhibition of 27 pseudo‐hexasaccharides (33, 33 a–z) on FGF‐2 interaction with heparin through a competition SPR assay. Biotinylated heparin was immobilized on the SPR biosensor. For the control well, FGF‐2 (50 nM) was flown over the sensor and the intensity of the signal due to FGF‐2 binding was set as a reference (100 %). […] Normalized FGF‐2 binding % was calculated based on the following formula: (signal intensity of FGF‐2/pseudo‐hexasaccharide)/(signal intensity of FGF‐2 only)×100 %. […]
FGF-2 was immobilized on sensor chip by primary amine coupling reaction. […] Solutions of various concentrations of pseudo-hexasaccharides 33, 33z, and 33m dissolved in 0.01% Tween 20 PBS buffer were injected over the FGF-2 chip at a flow rate of 30 µL/min, and the responses to binding were recorded .
Aqueous NaCl solution (2.0 M) was employed for regeneration to achieve baseline status after each run. Sensorgrams were evaluated using the Qdat program. […] The KD values were calculated by the Qdat software. […]
Heparin SPR chip was prepared by immobilizing biotinylated heparin on SA sensor chip (Cytiva, Uppsala, Sweden).[13] […] Normalized FGF - 2 binding % was calculated based on the following formula: (signal intensity o f FGF-2/pseudohexasaccharide)/(signal intensity of FGF -2 only) x 100%. […]

[2] = target: T1, FGF-2; assay: Direct binding SPR with FGF-2 immobilized on CDH sensor chip
Protocol: The direct binding of FGF‐2 to the HS mimetics was measured by surface plasmon resonance (SPR). FGF‐2 was immobilized on a carboxymethyl dextran high capacity (CDH) sensor chip surface through carbodiimide mediated coupling. O‐/N‐Sulfated (33), O‐sulfated (33 z) and N‐sulfated (33 m) pseudo‐hexasaccharides were selected as analytes in addition to the heparin polysaccharide (MW: 17.2 kDa). […] Seeberger and co‐workers studied the binding of HS hexasaccharides with FGF‐2 through a powerful glycan microarray technology.[36] […] The N‐acetylated, O‐sulfated hexasaccharide 35 gave binding of ≈20 % of that of heparin, while the hexasaccharide 36 having three N‐sulfates only gave the lowest signal (<2%) binding to FGF‐2. The trend of decreasing FGF‐2 affinity from N‐ and O‐sulfated, to O‐sulfated only, to N‐sulfated only sequences of HS hexasaccharides (34, 35, 36) correlates well with those of the pseudo‐hexasaccharides 33, 33 z, and 33 m.
Figure 3 a) The SPR sensorgram of FGF‐2 binding with compound 33. The concentrations of 33 from top to bottom curves were 750 nM, 500 nM, 250 nM, 100 nM, 10 nM, and 1 nM. Each experiment was repeated at least three times with the representative data shown. The vertical line indicates the time when the dissociation process started. b) Table of K D values determined for 33, 33 z, and 33 m through the FGF‐2 SPR binding assay. c) Structures of compounds 35–38.
Measurements of binding constants of pseudo-hexasaccharides 33, 33z, and 33m with FGF-2 […]
FGF-2 was immobilized on sensor chip by primary amine coupling reaction. The surface of a CDH sensor chip (FortéBio, Inc., Molecular Devices, USA) was activated using freshly mixed N-hydroxysuccimide (NHS; 0.05 M) and 1-(3-(dimethylamino)propyl)-ethylcarbodiimide (EDC; 0.2 M) (1/1,v/v) in water, followed by the injection of FGF -2 (50 µg/ml) in PBS buffer. The remaining active esters were quenched by ethanolamine (1.0 M). Solutions of various concentrations of pseudo-hexasaccharides 33, 33z, and 33m dissolved in 0.01% Tween 20 PBS buffer were injected over the FGF-2 chip at a flow rate of 30 µL/min, and the responses to binding were recorded .
Aqueous NaCl solution (2.0 M) was employed for regeneration to achieve baseline status after each run. Sensorgrams were evaluated using the Qdat program. The response data due to association and dissociation were processed in Qdat using a reference surface to correct for any bulk refractive index changes and blank injections for double referencing . The binding profiles were fit globally into a 1:2 interaction model. The KD values were calculated by the Qdat software.
Analysis of the inhibition of pseudo-hexasaccharides on heparin/FGF-2 interaction using […]

[3] = target: T1, FGF-2; set-up: method as in PMID 17066397; details: glycan microarray, glycan concentration 16 μM; cited from earlier work
[4] = target: T1, FGF-2; set-up: method as in PMID 28651046, PMID 24959968; details: read-out: KD of FGF-2 binding; cited from earlier work
[5] = immobilized FGF-2, 1:2 interaction model, read-out: dissociation constant (KD) of binding to FGF-2

inhibition of FGF-2/heparin interaction (in words) ([1]; under the experimental condition): did not exhibit any inhibition
binding to FGF-2 (in words) ([2]; immobilized FGF-2, at 3 μM): little binding
Kd ([2]; immobilized FGF-2, value printed in μM under head KD value (nM), read-out: KD value): > 3 µM
Compound: CC(=O)NCCO[C@@H]1O[C@@H](C(=O)O)[C@@H](O[C@H]2O[C@H](CO)[C@@H](OCCC(=O)NCCO[C@@H]3O[C@@H](C(=O)O)[C@@H](O[C@H]4O[C@H](CO)[C@@H](OCCC(=O)NCCO[C@@H]5O[C@@H](C(=O)O)[C@@H](O[C@H]6O[C@H](CO)[C@@H](OCCC(=O)O)[C@H](O)[C@H]6NS(=O)(=O)O)[C@H](O)[C@H]5O)[C@H](O)[C@H]4NS(=O)(=O)O)[C@H](O)[C@H]3O)[C@H](O)[C@H]2NS(=O)(=O)O)[C@H](O)[C@H]1O [33 m]

IC50 [1]: ~100000 nM
Kd [2, 5]: 0.94 µM
Compound: CC(=O)NCCO[C@@H]1O[C@@H](C(=O)O)[C@@H](O[C@H]2O[C@H](COS(=O)(=O)O)[C@@H](OCCC(=O)NCCO[C@@H]3O[C@@H](C(=O)O)[C@@H](O[C@H]4O[C@H](COS(=O)(=O)O)[C@@H](OCCC(=O)NCCO[C@@H]5O[C@@H](C(=O)O)[C@@H](O[C@H]6O[C@H](COS(=O)(=O)O)[C@@H](OCCC(=O)O)[C@H](O)[C@H]6NC(C)=O)[C@H](O)[C@H]5OS(=O)(=O)O)[C@H](O)[C@H]4NC(C)=O)[C@H](O)[C@H]3OS(=O)(=O)O)[C@H](O)[C@H]2NC(C)=O)[C@H](O)[C@H]1OS(=O)(=O)O [33 z]

IC50 [1]: 1700 nM
Kd [2, 5]: 0.0196 µM
Compound: CC(=O)NCCO[C@@H]1O[C@@H](C(=O)O)[C@@H](O[C@H]2O[C@H](COS(=O)(=O)O)[C@@H](OCCC(=O)NCCO[C@@H]3O[C@@H](C(=O)O)[C@@H](O[C@H]4O[C@H](COS(=O)(=O)O)[C@@H](OCCC(=O)NCCO[C@@H]5O[C@@H](C(=O)O)[C@@H](O[C@H]6O[C@H](COS(=O)(=O)O)[C@@H](OCCC(=O)O)[C@H](O)[C@H]6NS(=O)(=O)O)[C@H](O)[C@H]5OS(=O)(=O)O)[C@H](O)[C@H]4NS(=O)(=O)O)[C@H](O)[C@H]3OS(=O)(=O)O)[C@H](O)[C@H]2NS(=O)(=O)O)[C@H](O)[C@H]1OS(=O)(=O)O [compound 33]

Compound: NCCS(=O)(=O)CCCCCO[C@@H]1O[C@@H](C(=O)O)[C@@H](O[C@H]2O[C@H](COS(=O)(=O)O)[C@@H](O[C@@H]3O[C@@H](C(=O)O)[C@@H](O[C@H]4O[C@H](COS(=O)(=O)O)[C@@H](O[C@@H]5O[C@@H](C(=O)O)[C@@H](O[C@H]6O[C@H](COS(=O)(=O)O)[C@@H](O)[C@H](O)[C@H]6NS(=O)(=O)O)[C@H](O)[C@H]5OS(=O)(=O)O)[C@H](O)[C@H]4NS(=O)(=O)O)[C@H](O)[C@H]3OS(=O)(=O)O)[C@H](O)[C@H]2NS(=O)(=O)O)[C@H](O)[C@H]1OS(=O)(=O)O [compound 34]
binding to FGF-2 as compared to heparin polysaccharide [3]: ≈ 60%

Compound: CC(=O)N[C@H]1[C@@H](O[C@H]2[C@H](O)[C@@H](OS(=O)(=O)O)[C@H](OCCCCCN)O[C@H]2C(=O)O)O[C@H](COS(=O)(=O)O)[C@@H](O[C@@H]2O[C@@H](C(=O)O)[C@@H](O[C@H]3O[C@H](COS(=O)(=O)O)[C@@H](O[C@@H]4O[C@@H](C(=O)O)[C@@H](O[C@H]5O[C@H](COS(=O)(=O)O)[C@@H](O)[C@H](O)[C@H]5NC(C)=O)[C@H](O)[C@H]4OS(=O)(=O)O)[C@H](O)[C@H]3NC(C)=O)[C@H](O)[C@H]2OS(=O)(=O)O)[C@@H]1O [compound 35]
binding to FGF-2 as compared to heparin polysaccharide [3]: ≈ 20%

Compound: NCCCCCO[C@@H]1O[C@@H](C(=O)O)[C@@H](O[C@H]2O[C@H](CO)[C@@H](O[C@@H]3O[C@@H](C(=O)O)[C@@H](O[C@H]4O[C@H](CO)[C@@H](O[C@@H]5O[C@@H](C(=O)O)[C@@H](O[C@H]6O[C@H](CO)[C@@H](O)[C@H](O)[C@H]6NS(=O)(=O)O)[C@H](O)[C@H]5O)[C@H](O)[C@H]4NS(=O)(=O)O)[C@H](O)[C@H]3O)[C@H](O)[C@H]2NS(=O)(=O)O)[C@H](O)[C@H]1O [compound 36]
binding to FGF-2 as compared to heparin polysaccharide [3]: < 2%

Compound: CO[C@@H]1O[C@@H](C(=O)O)[C@@H](O[C@H]2O[C@H](COS(=O)(=O)O)[C@@H](O)[C@H](O)[C@H]2NS(=O)(=O)O)[C@H](O)[C@H]1OS(=O)(=O)O [compound 37]
Kd [4]: 17500 nM

Compound: NCCCCCO[C@H]1O[C@H](COS(=O)(=O)O)[C@@H](O[C@@H]2O[C@@H](C(=O)O)[C@@H](O[C@H]3O[C@H](COS(=O)(=O)O)[C@@H](O[C@@H]4O[C@@H](C(=O)O)[C@@H](O)[C@H](O)[C@H]4O)[C@H](O)[C@H]3NS(=O)(=O)O)[C@H](O)[C@H]2OS(=O)(=O)O)[C@H](O)[C@H]1NS(=O)(=O)O [compound 38]
Kd [4]: 1200 nM
